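Each compound was tested at five concentrations against cells in 96-well plates for 48 hours. The concentration for full growth arrest is given as TGI.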
Key:
Assay in all cases: NCI tumour cell line growth inhibition, 48 h
K-562 leukemia = test system: K-562 leukemia
OVCAR-8 ovarian = test system: OVCAR-8 ovarian
SNB-19 CNS = test system: SNB-19 CNS
OVCAR-4 ovarian = test system: OVCAR-4 ovarian
SK-MEL-2 melanoma = test system: SK-MEL-2 melanoma
UACC-62 melanoma = test system: UACC-62 melanoma
ACHN renal = test system: ACHN renal
PC-3 prostate = test system: PC-3 prostate
UO-31 renal = test system: UO-31 renal
T-47D breast = test system: T-47D breast
NCI/ADR-RES ovarian = test system: NCI/ADR-RES ovarian
MDA-MB-435 = test system: MDA-MB-435
TK-10 renal = test system: TK-10 renal
786-0 renal = test system: 786-0 renal
RXF 393 renal = test system: RXF 393 renal
SF-539 CNS = test system: SF-539 CNS
MOLT-4 leukemia = test system: MOLT-4 leukemia
IGROV1 ovarian = test system: IGROV1 ovarian
NCI-H522 lung = test system: NCI-H522 lung
MCF7 breast = test system: MCF7 breast

Compound	TGI (K-562 leukemia) [µM]	TGI (OVCAR-8 ovarian) [µM]	TGI (SNB-19 CNS) [µM]	TGI (OVCAR-4 ovarian) [µM]	TGI (SK-MEL-2 melanoma) [µM]	TGI (UACC-62 melanoma) [µM]	TGI (ACHN renal) [µM]	TGI (PC-3 prostate) [µM]	TGI (UO-31 renal) [µM]	TGI (T-47D breast) [µM]	TGI (NCI/ADR-RES ovarian) [µM]	TGI (MDA-MB-435) [µM]	TGI (TK-10 renal) [µM]	TGI (786-0 renal) [µM]	TGI (RXF 393 renal) [µM]	TGI (SF-539 CNS) [µM]	TGI (MOLT-4 leukemia) [µM]	TGI (IGROV1 ovarian) [µM]	TGI (NCI-H522 lung) [µM]	TGI (MCF7 breast) [µM]
C[C@@H](c1ccccc1)n1c(N)c(C#N)c2ccc([N+](=O)[O-])cc2c1=O	26.1	30.6	29.1	35.7	> 100	30.4	29.5	> 100	24.1	51.1	22.5	61	24	31.3	–	–	–	–	–	–
COC(=O)CC1N=C(NC#N)N(CCc2c[nH]c3ccccc23)C1=O (centres undefined)	> 100	> 100	> 100	> 100	–	> 100	> 100	–	> 100	–	–	–	> 100	> 100	> 100	> 100	> 100	> 100	–	–
CCN(CC)C1CC(O[C@H]2C[C@](O)(C(=O)CO)Cc3c(O)c4c(c(O)c32)C(=O)c2c(OC)cccc2C4=O)OC(C)C1O (some centres undefined)	0.947	0.565	0.754	0.255	0.193	0.0968	0.208	–	0.264	–	–	–	2.57	0.541	0.123	0.204	1.17	4.66	0.121	–
N#Cc1[nH]c(=O)n(-c2ccccc2)c1N	> 10	> 10	> 10	> 10	> 10	> 10	> 10	> 10	> 10	> 10	> 10	> 10	> 10	> 10	> 10	> 10	> 10	> 10	–	–
CCCc1c(O)nc(Nc2nc3ccccc3[nH]2)[nH]c1=O	> 100	> 100	> 100	> 100	> 100	> 100	> 100	> 100	> 100	> 100	> 100	> 100	> 100	> 100	> 100	> 100	> 100	> 100	> 100	–
CC1(C)OC(=O)N(c2ccccc2)C12C=Cc1cc([N+](=O)[O-])ccc1O2 (centres undefined)	> 100	> 100	> 100	> 100	> 100	> 100	> 100	> 100	> 100	86.9	> 100	62.8	> 100	> 100	> 100	–	84.9	> 100	> 100	–
CN(C)CC1CCCC(CN(C)C)C1OC(=O)c1ccccc1 (centres undefined)	> 100	> 100	–	> 100	> 100	> 100	> 100	–	> 100	–	–	–	> 100	> 100	> 100	> 100	> 100	> 100	> 100	–
COc1cc(OC)c2c(C)cc(=O)oc2c1	> 100	> 100	> 100	> 100	> 100	> 100	> 100	> 100	79.5	–	> 100	> 100	> 100	> 100	–	> 100	> 100	> 100	–	> 100
CCN(CC)CCSc1c2cc(OC)ccc2nc2ccc(OC)cc12	> 22.6	35.3	> 65.7	16.9	44.6	33.5	3.12	12.1	–	–	> 25.9	21.3	22.1	4.1	–	> 100	> 21.8	4.11	3.1	> 100
Cn1c([C@H](C#N)c2ncccc2[N+](=O)[O-])nc2ccccc21	> 100	> 100	> 100	–	> 100	> 100	> 100	> 100	> 100	–	> 100	> 100	> 100	> 100	97.7	95.4	> 100	–	38.3	> 100
C[Si](C)(C)OC1CC(=O)OC1n1cc(F)c(=O)[nH]c1=O (centres undefined)	> 100	> 100	> 100	> 100	> 100	> 100	> 100	–	> 100	–	–	–	> 100	> 100	98.4	> 100	> 100	> 100	> 100	–
CC(=O)O[C@H]1C(=O)[C@@]2(C)C(C(OC(=O)c3ccccc3)[C@]3(O)CC(OC(=O)C(O)C(NC(=O)c4ccc(C(F)(F)F)cc4)c4ccccc4)C(C)=C1C3(C)C)[C@]1(OC(C)=O)CO[C@@H]1C[C@@H]2O (some centres undefined)	14.8	2.44	> 37.5	> 37.5	0.284	0.269	> 37.5	–	–	–	–	–	> 37.5	5.58	–	0.65	7.39	> 37.5	0.2	–
COc1cc(Br)cc2cc(-c3cn4c(n3)sc3ccccc34)c(=O)oc12	46.4	> 75	> 75	> 75	70.6	> 75	> 75	41.2	> 75	–	> 75	> 75	> 75	> 75	–	> 75	65.4	34.9	28.7	> 75
CCOc1ncn(-c2ccc(NC(=S)NC3OC(CO)C(O)C(O)C3O)cc2)n1 (centres undefined)	> 100	> 100	> 100	> 100	–	> 100	–	> 100	> 100	> 100	–	> 100	> 100	> 100	–	> 100	> 100	> 100	> 100	> 100
